Test results published in PMC8330742, “New benzothieno[2,3-c]pyridines as non-steroidal CYP17 inhibitors: design, synthesis, anticancer screening, apoptosis induction, and in silico ADME profile studies” (Journal of Enzyme Inhibition and Medicinal Chemistry, 2021).

Columns and labels:
CCRF-CEM = experiment: NCI-60 SRB screen; type: cell-based; conditions: Homo sapiens, single dose 10^−5 M, read-out: Growth inhibition (%)
HL-60(TB) = experiment: NCI-60 SRB screen; type: cell-based, human; conditions: Homo sapiens; HL-60 (TB); single dose 10^−5 M; read-out: Growth inhibition (%)
K-562 = experiment: NCI-60 SRB screen; type: cell-based, human; conditions: Homo sapiens, K562; K-562; single dose 10^−5 M; read-out: Growth inhibition (%)
MOLT-4 = experiment: NCI-60 SRB screen; type: cell-based; conditions: Homo sapiens; MOLT-4; single dose 10^−5 M; read-out: Growth inhibition (%)
SR = experiment: NCI-60 SRB screen; type: cell-based; conditions: Homo sapiens, single dose 10^−5 M, read-out: Growth inhibition (%)
A549/ATCC = experiment: NCI-60 SRB screen; type: cell-based, human; conditions: Homo sapiens, single dose 10^−5 M, read-out: Growth inhibition (%)
EKVX = experiment: NCI-60 SRB screen; type: cell-based, human; conditions: Homo sapiens, single dose 10^−5 M, read-out: Growth inhibition (%)
HOP-62 = experiment: NCI-60 SRB screen; type: cell-based, human; conditions: Homo sapiens; HOP-62; single dose 10^−5 M; read-out: Growth inhibition (%)
HOP-92 = experiment: NCI-60 SRB screen; type: cell-based, human; conditions: Homo sapiens; HOP-92; single dose 10^−5 M; read-out: Growth inhibition (%)
NCI-H226 = experiment: NCI-60 SRB screen; type: cell-based, human; conditions: Homo sapiens; NCI-H226; single dose 10^−5 M; read-out: Growth inhibition (%)
NCI-H23 = experiment: NCI-60 SRB screen; type: cell-based, human; conditions: Homo sapiens; NCI-H23; single dose 10^−5 M; read-out: Growth inhibition (%)
NCI-H322M = experiment: NCI-60 SRB screen; type: cell-based, human; conditions: Homo sapiens, single dose 10^−5 M, read-out: Growth inhibition (%)
NCI-H460 = experiment: NCI-60 SRB screen; type: cell-based, human; conditions: Homo sapiens; NCI-H460; single dose 10^−5 M; read-out: Growth inhibition (%)
NCI-H522 = experiment: NCI-60 SRB screen; type: cell-based, human; conditions: Homo sapiens; NCI-H522; single dose 10^−5 M; read-out: Growth inhibition (%)
COLO 205 = experiment: NCI-60 SRB screen; type: cell-based, human; conditions: Homo sapiens; COLO 205; single dose 10^−5 M; read-out: Growth inhibition (%)
HCC-2998 = experiment: NCI-60 SRB screen; type: cell-based, human; conditions: Homo sapiens; HCC-2998; single dose 10^−5 M; read-out: Growth inhibition (%)
HCT-116 = experiment: NCI-60 SRB screen; type: cell-based, human; conditions: Homo sapiens; HCT-116; single dose 10^−5 M; read-out: Growth inhibition (%)
HCT-15 = experiment: NCI-60 SRB screen; type: cell-based, human; conditions: Homo sapiens; HCT-15; single dose 10^−5 M; read-out: Growth inhibition (%)
KM12 = experiment: NCI-60 SRB screen; type: cell-based, human; conditions: Homo sapiens; KM12; single dose 10^−5 M; read-out: Growth inhibition (%)
SW-620 = experiment: NCI-60 SRB screen; type: cell-based; conditions: Homo sapiens; SW-620; single dose 10^−5 M; read-out: Growth inhibition (%)
SF-268 = experiment: NCI-60 SRB screen; type: cell-based, human; conditions: Homo sapiens; SF-268; single dose 10^−5 M; read-out: Growth inhibition (%)
SF-295 = experiment: NCI-60 SRB screen; type: cell-based, human; conditions: Homo sapiens; SF-295; single dose 10^−5 M; read-out: Growth inhibition (%)
LOX IMVI = experiment: NCI-60 SRB screen; type: cell-based, human; conditions: Homo sapiens, single dose 10^−5 M, read-out: Growth inhibition (%)
M14 = experiment: NCI-60 SRB screen; type: cell-based, human; conditions: Homo sapiens; M14; single dose 10^−5 M; read-out: Growth inhibition (%)
MDA-MB-435 = experiment: NCI-60 SRB screen; type: cell-based; conditions: Homo sapiens, MDA-MB-435, read-out: Growth inhibition (%)
SK-MEL-2 = experiment: NCI-60 SRB screen; type: cell-based, human; conditions: Homo sapiens; SK-MEL-2; single dose 10^−5 M; read-out: Growth inhibition (%)
SK-MEL-28 = experiment: NCI-60 SRB screen; type: cell-based; conditions: Homo sapiens; SK-MEL-28; single dose 10^−5 M; read-out: Growth inhibition (%)
SK-MEL-5 = experiment: NCI-60 SRB screen; type: cell-based, human; conditions: Homo sapiens; SK-MEL-5; single dose 10^−5 M; read-out: Growth inhibition (%)
UACC-257 = experiment: NCI-60 SRB screen; type: cell-based, human; conditions: Homo sapiens, UACC-257; UACC-275 (so in the source); single dose 10^−5 M; read-out: Growth inhibition (%)
UACC-62 = experiment: NCI-60 SRB screen; type: cell-based, human; conditions: Homo sapiens; UACC-62; single dose 10^−5 M; read-out: Growth inhibition (%)
IGROV1 = experiment: NCI-60 SRB screen; type: cell-based, human; conditions: Homo sapiens, IGROV-1; IGROV1; single dose 10^−5 M; read-out: Growth inhibition (%)
OVCAR-3 = experiment: NCI-60 SRB screen; type: cell-based, human; conditions: Homo sapiens; OVCAR-3; single dose 10^−5 M; read-out: Growth inhibition (%)
OVCAR-4 = experiment: NCI-60 SRB screen; type: cell-based, human; conditions: Homo sapiens; OVCAR-4; single dose 10^−5 M; read-out: Growth inhibition (%)
OVCAR-8 = experiment: NCI-60 SRB screen; type: cell-based, human; conditions: Homo sapiens; OVCAR-8; single dose 10^−5 M; read-out: Growth inhibition (%)
NCI/ADR-RES = experiment: NCI-60 SRB screen; type: cell-based, human; conditions: Homo sapiens, single dose 10^−5 M, read-out: Growth inhibition (%)
SK-OV-3 = experiment: NCI-60 SRB screen; type: cell-based, human; conditions: Homo sapiens; SK-OV-3; single dose 10^−5 M; read-out: Growth inhibition (%)
786-0 = experiment: NCI-60 SRB screen; type: cell-based; conditions: Homo sapiens; 786-0; single dose 10^−5 M; read-out: Growth inhibition (%)
ACHN = experiment: NCI-60 SRB screen; type: cell-based; conditions: Homo sapiens, single dose 10^−5 M, read-out: Growth inhibition (%)
CAKI-1 = experiment: NCI-60 SRB screen; type: cell-based, human; conditions: Homo sapiens; CAKI-1; single dose 10^−5 M; read-out: Growth inhibition (%)
RXF 393 = experiment: NCI-60 SRB screen; type: cell-based, human; conditions: Homo sapiens; RXF 393; single dose 10^−5 M; read-out: Growth inhibition (%)
SN12C = experiment: NCI-60 SRB screen; type: cell-based, human; conditions: Homo sapiens, SN12C; SN 12 C; single dose 10^−5 M; read-out: Growth inhibition (%)
TK-10 = experiment: NCI-60 SRB screen; type: cell-based, human; conditions: Homo sapiens; TK-10; single dose 10^−5 M; read-out: Growth inhibition (%)
UO-31 = experiment: NCI-60 SRB screen; type: cell-based, human; conditions: Homo sapiens; UO-31; single dose 10^−5 M; read-out: Growth inhibition (%)
[1] = system: panel of 60 cancer cell lines; experiment: NCI-60 SRB screen, mean or range over the panel; type: cell-based, human; conditions: Homo sapiens; mean over the cell lines; single dose 10^−5 M; read-out: Mean growth inhibition (%)

Structure (SMILES): COc1ccc(C=C2Sc3c(F)cccc3C2=O)c(OC)c1 [Compound 2a, 2-(2,4-Dimethoxybenzylidene)-7-fluoro[1]benzothiophen-3(2H)-one]
- inhibition at 10 µM (CCRF-CEM): -5.14%
- inhibition at 10 µM (HL-60(TB)): 11%
- inhibition at 10 µM (K-562): 4.76%
- inhibition at 10 µM (MOLT-4): 4.1%
- inhibition at 10 µM (SR): 6.3%
- inhibition at 10 µM (A549/ATCC): -7.82%
- inhibition at 10 µM (EKVX): -5.71%
- inhibition at 10 µM (HOP-62): 5.99%
- inhibition at 10 µM (HOP-92): -8.14%
- inhibition at 10 µM (NCI-H226): 0.31%
- inhibition at 10 µM (NCI-H23): -4.04%
- inhibition at 10 µM (NCI-H322M): 0.25%
- inhibition at 10 µM (NCI-H460): -6.08%
- inhibition at 10 µM (NCI-H522): 6.14%
- inhibition at 10 µM (COLO 205): -16%
- inhibition at 10 µM (HCC-2998): -12.8%
- inhibition at 10 µM (HCT-116): -3.66%
- inhibition at 10 µM (HCT-15): -9.73%
- inhibition at 10 µM (KM12): -5.55%
- inhibition at 10 µM (SW-620): -4.67%
- inhibition at 10 µM (SF-268): 4.51%
- inhibition at 10 µM (SF-295): -4.69%
- inhibition at 10 µM (LOX IMVI): -0.02%
- inhibition at 10 µM (M14): -5.61%
- inhibition at 10 µM (MDA-MB-435): -0.27%
- inhibition at 10 µM (SK-MEL-2): -17.9%
- inhibition at 10 µM (SK-MEL-28): -7.93%
- inhibition at 10 µM (SK-MEL-5): -2.91%
- inhibition at 10 µM (UACC-257): -15.2%
- inhibition at 10 µM (UACC-62): 7.33%
- inhibition at 10 µM (IGROV1): 0.46%
- inhibition at 10 µM (OVCAR-3): -7.34%
- inhibition at 10 µM (OVCAR-4): -6.44%
- inhibition at 10 µM (OVCAR-8): -4.32%
- inhibition at 10 µM (NCI/ADR-RES): -3.61%
- inhibition at 10 µM (SK-OV-3): 6.36%
- inhibition at 10 µM (786-0): -12.2%
- inhibition at 10 µM (ACHN): -4.06%
- inhibition at 10 µM (CAKI-1): 11.9%
- inhibition at 10 µM (RXF 393): -27.9%
- inhibition at 10 µM (SN12C): -0.73%
- inhibition at 10 µM (TK-10): -34.9%
- inhibition at 10 µM (UO-31): 25%
- inhibition at 10 µM [1]: -3.74%
